Where two headings read alike, the source gives them in different places. A value given as a limit tells only on which side of the number the result lay.

One experiment deals with EZH2 (rPRC2) (Homo sapiens, UniProt Q15910). Kind of experiment: EZH2 assay: rPRC2, biotinylated oligonucleosomes, 3H SAM methyl transfer (FlashPlate scintillation). It counts as biochemical. The note with it: biotinylated oligonucleosome substrate.
The target in a further experiment is Y641N EZH2 (Homo sapiens, UniProt Q15910, Y641N). In words: Y641N EZH2 assay: as EZH2 assay, with reconstituted H3K27Me2 oligonucleosomes as substrate. It counts as biochemical.
Sequence of Y641N EZH2 (Q15910 whole entry Y641N): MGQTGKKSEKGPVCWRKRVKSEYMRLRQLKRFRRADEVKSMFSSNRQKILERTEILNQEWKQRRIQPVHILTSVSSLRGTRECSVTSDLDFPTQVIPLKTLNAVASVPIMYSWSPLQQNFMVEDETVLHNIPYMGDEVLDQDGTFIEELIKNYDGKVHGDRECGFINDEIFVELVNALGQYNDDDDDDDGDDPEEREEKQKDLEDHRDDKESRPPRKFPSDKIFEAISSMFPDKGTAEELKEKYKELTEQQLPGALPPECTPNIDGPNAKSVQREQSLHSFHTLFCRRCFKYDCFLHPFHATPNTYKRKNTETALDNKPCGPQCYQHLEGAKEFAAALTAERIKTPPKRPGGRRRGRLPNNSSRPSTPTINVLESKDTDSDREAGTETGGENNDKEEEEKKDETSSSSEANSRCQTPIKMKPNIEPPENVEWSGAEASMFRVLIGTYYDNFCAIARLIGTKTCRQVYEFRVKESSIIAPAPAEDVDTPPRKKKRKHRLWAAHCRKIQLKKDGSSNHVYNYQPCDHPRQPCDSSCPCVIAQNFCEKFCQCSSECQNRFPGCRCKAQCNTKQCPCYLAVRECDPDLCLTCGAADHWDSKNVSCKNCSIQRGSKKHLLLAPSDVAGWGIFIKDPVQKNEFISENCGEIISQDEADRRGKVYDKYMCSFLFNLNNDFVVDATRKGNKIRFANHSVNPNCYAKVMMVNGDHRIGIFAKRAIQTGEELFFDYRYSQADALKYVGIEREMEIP
Sequence of Y641N EZH2 (O75530 whole entry partner): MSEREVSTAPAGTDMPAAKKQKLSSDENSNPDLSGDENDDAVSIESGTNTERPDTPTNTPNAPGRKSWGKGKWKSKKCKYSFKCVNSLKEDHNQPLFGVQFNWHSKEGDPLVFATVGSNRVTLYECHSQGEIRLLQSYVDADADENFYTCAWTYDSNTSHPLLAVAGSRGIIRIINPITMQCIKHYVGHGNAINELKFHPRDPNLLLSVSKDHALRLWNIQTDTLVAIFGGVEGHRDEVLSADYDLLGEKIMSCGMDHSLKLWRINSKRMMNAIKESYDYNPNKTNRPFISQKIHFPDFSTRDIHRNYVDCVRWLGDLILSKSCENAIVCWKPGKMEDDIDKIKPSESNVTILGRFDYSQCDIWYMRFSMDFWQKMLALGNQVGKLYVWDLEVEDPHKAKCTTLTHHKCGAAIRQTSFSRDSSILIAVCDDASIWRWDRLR
Sequence of Y641N EZH2 (Q15022 whole entry partner): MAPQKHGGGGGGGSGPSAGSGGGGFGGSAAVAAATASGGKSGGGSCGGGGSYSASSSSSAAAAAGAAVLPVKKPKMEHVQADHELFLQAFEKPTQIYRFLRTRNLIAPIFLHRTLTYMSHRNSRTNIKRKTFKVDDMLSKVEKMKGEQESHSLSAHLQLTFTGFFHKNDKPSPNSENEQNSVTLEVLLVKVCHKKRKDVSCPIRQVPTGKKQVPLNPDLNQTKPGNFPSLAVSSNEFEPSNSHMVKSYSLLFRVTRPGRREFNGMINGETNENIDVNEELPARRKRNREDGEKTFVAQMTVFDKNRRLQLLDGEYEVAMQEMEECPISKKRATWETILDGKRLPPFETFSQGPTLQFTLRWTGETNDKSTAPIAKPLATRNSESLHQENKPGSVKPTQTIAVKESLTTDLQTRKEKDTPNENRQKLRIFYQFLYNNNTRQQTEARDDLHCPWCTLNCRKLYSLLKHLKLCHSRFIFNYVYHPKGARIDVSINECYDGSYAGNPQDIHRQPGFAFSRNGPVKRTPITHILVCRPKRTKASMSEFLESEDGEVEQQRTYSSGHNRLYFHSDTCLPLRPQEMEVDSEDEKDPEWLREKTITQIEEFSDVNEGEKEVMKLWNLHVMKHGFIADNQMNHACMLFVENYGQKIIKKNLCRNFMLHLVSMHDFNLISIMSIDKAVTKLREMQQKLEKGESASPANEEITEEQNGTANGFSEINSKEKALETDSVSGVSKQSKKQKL
Experiment [1] relates to H3K27me3 mark in HeLa cells. Kind of experiment: H3K27me3 Alpha Hela Assay (AlphaLISA). The class given is cell-based. The note with it: Homo sapiens, 72 hrs, read-out: H3K27me3_Alpha_HeLa_ (EC50). As for the experimental part: H3K27me3 Alpha Hela Assay (AlphaLISA).
Ten different doses of each test compound (in a series of 3-fold dilutions) were plated in duplicate 384-well tissue culture treated plates (Catalog #781080; Greiner Bio One; Monroe, N.C.). Hela cells grown in culture were trypsinized and counted using a Countess® cell counter (Catalog #C10281; Life Technologies, Grand Island, N.Y.). Cell were diluted to 67,000 cells per mL in 10% DMEM (Catalog #10569-010 Life Technologies. Grand Island, N.Y.) and 15 μL (1,000 cells) were plated into each well using the Biotek MicroFlo™ Select Dispenser (BioTek Instruments. Inc. Vermont, USA),) of the 384-well plate. Plates were incubated at 37° C./5% CO2 for 72 hrs. One of the duplicate plates was processed for HeLa assay and the other for viability.
To the plate processed for AlphaLISA was added 5 μL per well Cell-Histone Lysis buffer (1×) (Catalog #AL009F1 Perkin Elmer; Waltham, Mass.) and the plate was incubated at RT for 30 minutes on a plate shaker with low speed (Model#4625-Q Thermo Scientific; Waltham, Mass.). Then, 10 µL per well Histone Extraction buffer (catalog #AL009F2: Perkin Elmer; Waltham, Mass.) was added and the plate further incubated at RT for 20 min on plate shaker with low speed. To each well was then added 10 μL per well of a 5× mix of anti-K27me3 acceptor beads plus Biotinylated anti-Histone H3 (C-ter) Antibody (diluted to 3 nM final) (Catalog #AL118 Perkin Elmer; Waltham, Mass.). Dilution of the acceptor beads and then anti-Histone H3 was with 1× Histone Detection buffer (Catalog #AL009F3 Perkin Elmer; Waltham, Mass.) which was produced diluted from the 10× stock provided. The plate was sealed with an aluminum plate sealer and incubated at 23° C. for 60 min. We then added 10 μL 5× solution of Streptavidin Donor beads (Catalog #6760002 Perkin Elmer; Waltham, Mass.) (20 μg/mL final in 1× Histone Detection Buffer), sealed the plate with Aluminum plate sealer and incubated at 23° C. for 30 min. The plates were then read using an EnVision-Alpha Reader (model #2104 Perkin Elmer: Waltham, Mass.).
Data from both assays was analyzed using Assay Assistant (Constellation Pharmaceuticals In-house product) and Activity Base (IDBS Ltd. Surrey, UK) template. Data files were imported to Assay Assistant and assay conditions were specified. A unique Analysis ID was created and the data files exported to Activity Base. An analysis template was created on Activity Base to measure dose-dependent inhibition of H3K27me3 mark and cell viability respectively. Readout of DMSO wells were used to normalize the data. Resulting curves were fitted using Activity base software Model 205 (IDBS Ltd, Surrey, UK). The data was checked for quality, validated and integrated in excel format using SARview (IDBS Ltd, Surrey, UK).
For orientation: Bead proximity is the source of the signal in Alpha formats.

For experiment [2], the system named is H3K27me3 mark in HeLa cells. In words: H3K27me3 MSD Hela Assay. The note with it: read-out: H3K27me3_MSD_HeLa_ (EC50). It counts as cell-based. The gist of the method: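 HeLa cells treated with compound at various concentrations for 96 h at 37 °C, then lysed with high-salt extraction. H3K27me3 measured by MSD electrochemiluminescence immunoassay on total-H3 capture plates. Dose-dependent inhibition normalised to DMSO wells and fitted to curves.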

The mark [3] stands for this setting: EZH2 IC50, wild-type EZH2 (rPRC2).
[4] abbreviates: Y641N EZH2 IC50, Y641N mutant EZH2, H3K27Me2 oligonucleosome substrate.
Setting [5] is: wild-type EZH2 (rPRC2), read-out: EZH2 IC50.
[6] abbreviates: Y641N mutant EZH2, H3K27Me2 oligonucleosome substrate, read-out: Y641N EZH2 IC50.

Sequence of EZH2 (rPRC2) (Q15910 whole entry): as the sequence (Q15910 whole entry Y641N) above, with N641Y counted along it
Sequence of EZH2 (rPRC2) (O75530 whole entry partner): as the sequence (O75530 whole entry partner) above
Sequence of EZH2 (rPRC2) (Q15022 whole entry partner): as the sequence (Q15022 whole entry partner) above

With `COc1cc(C)[nH]c(=O)c1CNC(=O)c1c(C)n(C(C)C2CCNCC2)c2ncncc12` (racemic) [Compound 333, (±)-N-((4-methoxy-6-methyl-2-oxo-1,2-dihydropyridin-3-yl)methyl)-6-methyl-7-(1-(piperidin-4-yl)ethyl)-7H-pyrrolo[2,3-d]pyrimidine-5-carboxamide], the figures for the IC50 against EZH2 (rPRC2) (setting [3]) and against Y641N EZH2 (setting [4]) were below 100 nM and 100 to 1000 nM, respectively. Also, the EC50 (usually the midpoint of the concentration-response curve) in experiment [1] was 400 to 2000 nM.
The corresponding values for `CCC(C)n1c(C)c(C(=O)NCc2c(OC)cc(C)[nH]c2=O)c2ccc(-c3ccc(N4CCNCC4)nc3)cc21` (racemic) [Compound 349, (±)-1-(sec-butyl)-N-((4-methoxy-6-methyl-2-oxo-1,2-dihydropyridin-3-yl)methyl)-2-methyl-6-(6-(piperazin-1-yl)pyridine-3-yl)-1H-indole-3-carboxamide] are below 100 nM, below 100 nM and 2000 to 10000 nM.
As for `COc1cc(C)[nH]c(=O)c1CNC(=O)c1c(C)n(C(C)C2CCN(S(C)(=O)=O)CC2)c2ccccc12` (single isomer, unassigned) [Compound 336, (R or S)-N-((4-methoxy-6-methyl-2-oxo-1,2-dihydropyridin-3-methyl)-2 methyl-1-(1-(1-(methylsulfonyl)piperidin-4-yl)ethyl)-1 H-indole-3-carboxamide], in experiment [1], the concentration for a half-maximal effect (EC50) is below 400 nM.
Still for that read-out and setting: the same measure for `COc1cc(C)[nH]c(=O)c1CNC(=O)c1c(C)n(C(C)C2CCN(C(=O)C(C)(C)O)CC2)c2ccccc12` (single isomer, unassigned) [Compound 337, (R or S)-1-(1-(1-(2-hydroxy-2-methylpropanoyl)piperidin-4-yl)ethyl)-N-((4-methoxy-6-methyl-2-oxo-1,2-dihydropyridin-3-yl)methyl)-2-methyl-IH-indole-3-carboxamide]: below 400 nM; for `COc1cc(C)[nH]c(=O)c1CNC(=O)c1c(C)n(C(C)C2CCN(C3COC3)CC2)c2ccccc12` (single isomer, unassigned) [Compound 341, (R or S)-N-((4-methoxy-6-methyl-2-oxo-1,2dihydropyridin-3-yl)methyl)-2-methyl-1-(1-(1-(oxctan-3-yl)piperidin-4-yl)ethyl)-1 H-indole-3-carboxamide]: below 400 nM.
As to `COc1cc(C)[nH]c(=O)c1CNC(=O)c1c(C)n(C(C)C2CCN(C(=O)C(C)C)CC2)c2ccccc12` (single isomer, unassigned) [Compound 342, (R or S)-1-(1-(1-isobulyrylpiperidin-4-yl)ethyl)-N-((4-methoxy-6-methyl-2-oxo-1,2-dihydropyridin-3-yl)methyl)-2-methyl-1H-indole-3-carboxamide], the EC50 in experiment [1] is below 400 nM.
Consider `Cc1cc(OC(F)F)c(CNC(=O)c2c(C)n(C(C)C3CCN(S(C)(=O)=O)CC3)c3ccccc23)c(=O)[nH]1` (single isomer, unassigned) [Compound 344, (R or S)-N((4-(difluoromethoxy)-6-methyl-2-oxo-1,2-dihydropyridin-3-yl)methyl)-2-methy1-1-(1-(1-(methylsulfonyl)piperidin-4-yl)ethyl)-1H-indole-3-carboxamide], for which the concentration giving a half-maximal response (EC50) in experiment [1] is below 400 nM.
For the molecule `COCCN1CCC(C(C)n2c(C)c(C(=O)NCc3c(OC)cc(C)[nH]c3=O)c3ccccc32)CC1` (single isomer, unassigned) [Compound 359, (R or S)-N-((4-methoxy-6-methyl-2-oxo-1,2-dihysropyridin-3-yl)methyl)-1-(1-(1-(2-methoxyethyl)piperidin-4-yl)ethyl)-2-methyl-1 H-indole-3-carboxamide], in experiment [1], the EC50 fell in the range of 400 to 2000 nM.
As for `COc1cc(C)[nH]c(=O)c1CNC(=O)c1c(C)n(C(C)C2CCN(CC(F)(F)F)CC2)c2ccccc12` (single isomer, unassigned) [Compound 365, (R or S)-N-((4-methoxy-6-methyl-2-oxo-1,2-dihydropyridin-3-yl)methyl)-2-methyl-1-(1-(1-(2,2,2-trifluoroethyl)piperidin-4-yl)ethyl)-1H-indole-3-carboxamide], the EC50 in experiment [1] was below 400 nM.
As to `CCc1cc(C)[nH]c(=O)c1CNC(=O)c1c(C)n(C(C)C2CCN(C)CC2)c2ccccc12` (single isomer, unassigned) [Compound 366, (R or S)-N-((4-ethyl-6-methyl-2-oxo-1,2-dihydropyridin-3-yl)methyl)-2-methyl-1-(1-(1-methylpiperidin-4-yl)ethyl-1 H-indole-3-carboxamide], in experiment [1], the EC50 lay within 400 to 2000 nM.
`Cc1cc(C)c(CNC(=O)c2c(C)n(C(C)C3CCN(C)CC3)c3ccccc23)c(=O)[nH]1` (single isomer, unassigned) [Compound 367, (R or S)-N-((4,6-dimethyl-2-oxo-1,2-dihydropyridin-3-yl)methyl)-2-methyl-1-(1-(1-methylpiperidin-4-yl)ethyl)-1 H-indole-3-carboxamide]: the EC50 in experiment [1] was below 400 nM.
For the molecule `CCS(=O)(=O)N1CCC(C(C)n2c(C)c(C(=O)NCc3c(C)cc(C)[nH]c3=O)c3ccccc32)CC1` (single isomer, unassigned) [Compound 368, (R or S)-N-(4,6-dimethyl-2-oxo-1,2-dihydropyridin-3-yl)methyl)-1-(1-(1-(ethylsulfonyl)piperidin-4-yl)ethyl)-2-methyl-1 H-indole-3-carboxamide], the 50% effective concentration (EC50) in experiment [1] is below 400 nM.
On to `Cc1cc(C)c(CNC(=O)c2c(C)n(C(C)C3CCN(C4COC4)CC3)c3ccccc23)c(=O)[nH]1` (single isomer, unassigned) [Compound 375, (R or S)-N-((4,6-dimethyl-2-oxo-1,2-dihydropyridin-3-yl)methyl)-2-methyl-1-(1-(1-(oxctan-3-yl)piperidin-4-yl)ethyl)-1 H-indole-3-carboxamide], for which the EC50 in experiment [1] was below 400 nM.
As for `COc1cc(C)[nH]c(=O)c1CNC(=O)c1c(C)n(C(C)C2CCCN(S(C)(=O)=O)C2)c2ccccc12` (centres unmarked) [Compound 318], the IC50 against EZH2 (rPRC2) (setting [3]) and against Y641N EZH2 (setting [4]) was below 100 nM each time. Also, the EC50 in experiment [2] (Homo sapiens, HeLa, 96 h) is above 10000 nM.
Turning to `COc1cc(C)[nH]c(=O)c1CNC(=O)c1c(C)n(C2CCCC2)c2ccccc12` [Compound 324, 1-cyclopentyl-N-((4-methoxy-6-methyl-2-oxo-1,2-dihydropyridin-3-yl)methyl)-2-methyl-1H-indole-3-carboxamide], the values for the IC50 on EZH2 (rPRC2) (setting [3]) and against Y641N EZH2 (setting [4]) were below 100 nM and 100 to 1000 nM, respectively. Besides, the concentration giving a half-maximal response (EC50) in experiment [2] (Homo sapiens, HeLa, 96 h) lay within 2000 to 10000 nM.
The corresponding values for `Cc1cc(C)c(CNC(=O)c2c(C)n([C@H](C)c3ccccc3)c3ncncc23)c(O)n1` [Compound 395, (R)—N-((2-hydroxy-4,6-dimethylpyridin-3-yl)methyl)-6-methyl-7-(1-phenylethyl)-7H-pyrrolo[2,3-d]pyrimidine-5-carboxamide] are below 100 nM, 100 to 1000 nM and 2000 to 10000 nM.
Consider “(±)-1-(1-(3-cyanophenyl)ethyl)-N-(4,6-dimethyl-2-oxo-1,2-dihydropyridin-3-yl)-2-methyl-1H-indole-3-carboxamide [Compound 175]”, for which the 50% inhibitory concentration (IC50) at EZH2 (rPRC2) (setting [5]) and at Y641N EZH2 (setting [6]) was below 100 nM in each case. In experiment [2] (HeLa cells, MSD, 96 hours), the concentration giving a half-maximal response (EC50) is 400 to 2000 nM.
On to “N-((4-methoxy-6-methyl-2-oxo-1,2-dihydropyridin-3-yl)methyl)-2-methyl-1-(1-(1-(methylsulfonyl)piperidin-3-yl)ethyl)-1H-indole-3-carboxamide [Compound 320]”, for which the half-maximal inhibitory concentration (IC50) on EZH2 (rPRC2) (setting [5]) and at Y641N EZH2 (setting [6]) was below 100 nM throughout. The EC50 in experiment [2] (HeLa cells, MSD, 96 hours) lay in the range of 400 to 2000 nM.
